What was measured:
[1] = system: S6 phosphorylation (Ser235/236) in KG-1 cells; test: S6 phosphorylation, flow cytometry; type: cell-based; conditions: Homo sapiens; KG-1, 4 hours
Description: (§1) For biomarker experiments, MV-4-11, MOLM-13 and KG-1 cells were seeded at 1 × 10^6 in 3 ml of medium, while MOLM-16 cells were seeded at 1 × 10^6 in 4 ml of medium and left for ~ 18 hours (37°C, 5% CO2). […] Final concertation of DMSO was 0.1%. After 4h of incubation cells were harvested, centrifuged and washed with ice-cold PBS. Cells were fixed with 4% paraformaldehyde buffered with PBS and permeabilized with 90% methanol. Cells were incubated with primary antibody (S6 phopspho-Ser235/236, Cell Signaling, Cat. No: 4856) diluted 1:200 in 0.5% BSA/PBS. […] Cells were analyzed on Flow Cytometer BD LSR II with an excitation wavelength of 488 nm and peak emission 590 nm.

[2] = system: S6 phosphorylation (Ser235/236) in MOLM-13 cells; test: S6 phosphorylation, flow cytometry; type: cell-based; conditions: Homo sapiens; MOLM-13, 4 hours
Description: as §1

[3] = system: S6 phosphorylation (Ser235/236) in MOLM-16 cells; test: S6 phosphorylation, flow cytometry; type: cell-based; conditions: MOLM16; MOLM-16, 4 hours
Description: as §1

[4] = system: S6 phosphorylation (Ser235/236) in MV-4-11 cells; test: S6 phosphorylation, flow cytometry; type: cell-based; conditions: Homo sapiens, MV4-11; MV-4-11, 4 hours
Description: as §1

[5] = Total blood cell counts in mice with MV-4-11 tumors; conditions: treatment day 15
Description: All animals were handled in strict accordance with good animal practice as defined by the relevant national and local animal welfare bodies. SCID and SCID/beige C.B-17 mice were provided by Harlan Laboratories or Charles River Laboratories, and were maintained in pathogen free conditions. For the xenograft experiments, age-matched (9-11 weeks old) females were used. 5×10^6 of MV-4-11 or MOLM-16 cells were suspended in a mixture (1:1, v:v) of PBS with Matrigel (BD Biosciences,) and injected subcutaneously (sc), in a total volume of 100 μL, above the groin on the right hind limb. For MOLM-13 and KG-1 cells, a mixture (3:1, v:v) of PBS and Matrigel HC (BD Bioscience,) was used to inject 5 × 10^6 of cell per mouse subcutaneously (sc), in a total volume of 100 μL. When tumors reached 100-130 mm^3, mice were randomized into uniform groups (6-9 mice per group) and subsequently administered the compound. […] At the end of the experiment, mice were anesthetized with isofluran and blood samples for total cell counts and biochemistry were obtained by retro-orbital bleeding. […] 5×10^6 cells suspended in a mixture (3:1, v:v) of PBS and Matrigel were injected as described above. When the tumor volume reached ~120 mm^3, mice were randomized into uniform groups (5 mice per group) and the compound then administered. […] Tumor volume was monitored every second day and calculated using the formula: TV = (a^2×b)/2, where “a” is the short axis in millimeters, and “b” is the long axis in millimeters. Body weight was assessed every day. […]
Supplementary Table 10: Related to Figure 5C. […] The assessment total
performed on treatment day 15.
RBC – red blood cells, HGB – hemoglobin, HCT – hematocrit, WBC – white blood cells, LYMPH – lymphocytes, MONO
– monocytes, GRA – granulocytes, PLT – platelet, MPV – mean platelet volume.

[6] = system: Phospho-S6 in MOLM-16 tumors; test: PK/PD: phospho-S6 in MOLM-16 tumors after dosing; type: in vivo, SCID/beige mice; conditions: 25 mg/kg BID for 3 days
Description: At the end of the experiment, mice were sacrificed 4, 8 and 24h after the last dose (three mice per time point). Plasma and tumor samples were collected and stored at −80°C for further analysis.

[7] = system: MOLM-16 (FLT3-WT) cells; test: Western blot of FLT3/PIM downstream signaling; type: cell-based; conditions: MOLM-16, 4 hours
Description: (§2) Thereafter, we assessed the activities of FLT3-ITD – induced key pro-survival signaling pathways; STAT5, RAF/MEK/ERK and PI3K/AKT (Figure 3). […] Since the expression of a major anti-apoptotic BCL2 family member, MCL1, is regulated by translation, and PIM kinases regulate protein synthesis through 4EBP1, we also assessed the abundance of MCL1.
(§3) Cells were collected, washed twice with cold PBS, and lysed in RIPA buffer and kept on ice for 10 min. Tumor specimens from xenograft studies were homogenized in RIPA buffer using OMNI TH Tissue Homogenizer and kept on ice for 30 min. After incubation, cell and tumor lysates were centrifuged at 13,000×g at 4°C for 10 min and the supernatants were stored at −80°C until use. Protein concentration was measured using the Bradford method. For SDS-PAGE, 50 μg of protein in the Laemmli sample buffer was loaded onto 10% polyacrylamide gels and electrophoresed. Thereafter, proteins were transferred onto polyvinylidene fluoride (PVDF) membranes (Millipore). After blocking with 5% non-fat dry milk/TBS-T or 2% BSA/TBS-T, membranes were incubated with specific primary antibodies (listed in Supplementary Table 2) at 4 °C overnight. After extensive washing in PBS-T, membranes were incubated for 60 min with appropriate secondary peroxidase-conjugated IgG. The immunoreactive proteins were detected using an enhanced chemiluminescence (ECL) substrate (GE Healthcare) and visualized with Hyperfilm-ECL (GE Healthcare Biosciences).

[8] = system: MV-4-11 (FLT3-ITD+) cells; test: Western blot of FLT3/PIM downstream signaling; type: cell-based; conditions: MV-4-11, 4 hours
Description: as §2, §3

[9] = system: MOLM-16; test: MTS viability assay, 72 h; conditions: MOLM16, 72 h
Description: On the same day, 50 μL of medium containing tested inhibitor was added to the wells. Each compound was tested at 8 concentrations, in triplicates. As a negative control, the medium containing 0.1% DMSO was used. […] Staurosporine was used at 10 μM as a positive control. One the day of drug addition, basal signal from untreated cells was measured from in triplicate to determine time zero (T0). […] GI50 and LC50 values were extrapolated from a variable (four-parameter) dose-response curve fitted in GraphPad Prism.

[10] = system: KASUMI-3; test: MTS viability assay, 72 h; conditions: Kasumi-3, 72 h
Description: (§4) 15-25 ×10^3 of MV-4-11, MOLM-13, MOLM-14, MOLM-16, KG-1, Eol-1, SKM-1, PL-21, GDM-1, SKNO-1, RS4;11, Kasumi-3 and Kasumi-6 cells were seeded in 150 μL of culture medium onto individual wells in a 96 well plates, in triplicates. On the same day, 50 μL of medium containing tested inhibitor was added to the wells. Each compound was tested at 8 concentrations, in triplicates. As a negative control, the medium containing 0.1% DMSO was used. […] Staurosporine was used at 10 μM as a positive control. One the day of drug addition, basal signal from untreated cells was measured from in triplicate to determine time zero (T0). […] GI50 and LC50 values were extrapolated from a variable (four-parameter) dose-response curve fitted in GraphPad Prism.

[11] = system: SKNO-1; test: MTS viability assay, 72 h; conditions: SKNO-1, 72 h
Description: as §4

[12] = system: PL-21; test: MTS viability assay, 72 h; conditions: PL-21, 72 h
Description: as §4

## CC(C)n1c(C2CCNCC2)nc2c([N+](=O)[O-])c(Br)c(Br)cc21 [SEL24-B489, 5,6-dibromo-4-nitro-2-(piperidin-4-yl)-1-(propan-2-yl)-1H-1,3-benzodiazole]
[1]
  IC50: 195 nM
[2]
  IC50: 102 nM
[3]
  IC50: 58 nM
[4]
  IC50: 13 nM
[5]; SEL24-B489 25 mg/kg
  GRA: 42.2%
  HCT: 48.8%
  HGB: 14.6 g/dL
  LYMPH: 47.2%
  MONO: 10.6%
  MPV: 6.1 μm3
  PLT: 1016 103/mm3
  RBC: 9.8 106/mm3
  WBC: 3.1 103/mm3
[5]; SEL24-B489 50 mg/kg
  GRA: 49.1%
  HCT: 47.4%
  HGB: 14.4 g/dL
  LYMPH: 40.3%
  MONO: 10.5%
  MPV: 5.7 μm3
  PLT: 1286 103/mm3
  RBC: 9.6 106/mm3
  WBC: 4.9 103/mm3
[6]
  time after the last dose that Phospho-S6 remained suppressed: up to 8 hours
[7]
  S6 (S235/236) phosphorylation: profound inhibition
[8]
  MCL1 abundance: markedly decreased
  STAT5 signaling: completely blocked
  apoptosis indicated by PARP cleavage: marked induction of apoptosis
[9]
  GI50: 42 nM
[9]; read-out: LC50
  CC50: 153 nM
[10]
  GI50: 633 nM
[10]; read-out: LC50
  CC50: 2330 nM
[11]
  GI50: 18 nM
[12]
  GI50: 1710 nM
